Measured values reported in a melting point compilation (Tetko et al.; mined from patent text by program, amines drawn as free bases though some values may be those of a salt).

Point of comparison: N#Cc1ccc2c(c1)S(=O)(=O)c1ccc(F)cc1C2=O, melting point 260 °C. Against it:
- CC(O)c1cc2c3ccccc3n(C)c(=O)n2n1 (configuration not stated) — lower, 169 to 172 °C
- Cc1cccc2c1C(=O)C([N+](=O)[O-])C2=O (configuration not stated) — lower, 108 to 109 °C
- O=C1Cc2ccccc2SN(CCO)C1 — lower, 173 to 175 °C
- Cc1nn(C)c(Oc2ccccn2)c1C=O — lower, 56 to 57 °C
- O=C(O)c1ccc(S(=O)(=O)C(Br)(Br)Br)cc1 — higher, > 305 °C
- CCOC(=O)c1cc(=O)c2ccc(NCc3ccccc3)c([N+](=O)[O-])c2o1 — lower, 168 °C
- CCOC(=O)c1ccc(OCCCCCCCCCCCCCCOc2ccc(Cl)cc2)cc1 — lower, 72.5 to 73.5 °C
- Cc1nc(-c2cccc(F)c2)n(-c2ccc(S(N)(=O)=O)cn2)n1 — lower, 195 to 196 °C
- CC(C#Cc1ccc(F)cc1)N(O)C(N)=O (configuration not stated) — lower, 156 to 158 °C
- CCCOc1ccc(S(=O)(=O)N2CCN(C)CC2)cc1-c1nc2cc(N)c([N+](=O)[O-])cc2c(=O)[nH]1 — higher, 270 to 271 °C
- CCNS(=O)(=O)c1ccc(N)c(C(=O)N2CCN(C)CC2)c1 — lower, 175 to 177 °C
- Cc1cc(Cl)cc(C(=NCCC(=O)O)c2ccc(Cl)cc2)c1O — lower, 138 °C
- O=C(NC1CCOCC1)NC12CC3CC(CC(C3)C1)C2 — lower, 239 to 242 °C
- CN(C)c1cccc2c(S(=O)(=O)Nc3ccc(Cl)cn3)cccc12 — lower, 160 to 162 °C
- O=C(O)CC(Sc1ccccc1)c1ccc(Cl)cc1 (configuration not stated) — lower, 99 to 102 °C
- O=C(Nc1cccc(F)c1F)c1ccc(-n2nc(C(F)(F)F)cc2C2CC2)nc1 — lower, 155 to 160 °C
- COc1ccc(C(=O)Nc2ccc(OCCCl)cc2)c(N)c1 — lower, 167 to 168 °C
- NCc1ccn(C2=CC3=C(CC2)CCc2[nH]c(=O)c(=O)n(CC(=O)O)c23)c1 — not separable, > 250 °C
- CCOC(=O)c1nc(-c2ccc(=O)n(CC)c2)c(-c2ccccc2)nc1N — lower, 175 to 179 °C
- Nc1sc2c(c1C(=O)c1ccc(I)c3ccccc13)CCCC2 — lower, 180 to 182 °C
- CC(C)(C)OOC(C)(CCC(=O)N(N)C(=O)OCCOCCOC(=O)N(N)C(=O)CCC(C)(OOC(C)(C)C)OOC(C)(C)C)OOC(C)(C)C — lower, 45 to 50 °C
- CC(C)NC(=O)c1coc(CN2C(=O)C3(COc4cc5c(cc43)OCO5)c3ccccc32)n1 (configuration not stated) — lower, 182 to 183 °C
- CS(=O)(=O)CCC(C#N)CC#N (configuration not stated) — lower, 123 to 125 °C
- Cc1cc(CN2CCN(c3ccc(C(=O)NC4CC4)cc3Cl)CC2)cc2c1OC(C)C(=O)N2 (configuration not stated) — lower, 252 to 255 °C
- COc1cc(-n2c(=O)cc(C(F)(F)F)n(N)c2=O)ccc1C#N — not separable, > 230 °C
- COc1cc2c(cc1Nc1ncc(C(F)(F)F)c(N[C@H]3[C@@H](C(N)=O)[C@@H]4C=C[C@H]3C4)n1)CCN(CC(=O)N(C)C)CC2 — lower, 133 to 135 °C
- O=C1C(=Cc2cccc(C(F)(F)F)c2)SC(=S)N1N=c1sc2ccccc2s1 — higher, 268 to 269 °C
- COc1ccc(C(CSc2ccccc2N)C(=O)O)cc1 (configuration not stated) — lower, 118 °C
- c1cncc(Nn2ccc3ccccc32)c1 — lower, 127 to 128 °C
- COc1ccc(NC(=O)/C(C)=C/c2ccc(C(F)(F)F)cc2)c(C(=O)O)c1 — lower, 207 to 208 °C
- O=C(c1ccc(Cl)cc1)C(O)(Cn1cncn1)C(Cl)(Cl)Cl (configuration not stated) — lower, 173 to 174 °C
- Cc1cc(N2CCCC2)c2ccc(I)cc2n1 — lower, 99 to 102 °C
- CCOC(=O)C1CN(C(=O)c2cc(OC)c(OC)c(OC)c2)CCN1 (configuration not stated) — lower, 114 to 115 °C
- O=S(=O)(NCCc1ccc(Cc2nnn[nH]2)cc1)c1ccc(Cl)cc1 — lower, 168 to 169 °C
- N#CC1CN1C(=O)C1(c2ccc(Cl)cc2)CCCC1 (configuration not stated) — lower, 80 to 82 °C
- COC1(OC)CC(c2ccccc2)N(O)C(c2ccccc2)C1 (configuration not stated) — lower, 172 to 175 °C
- COC(=O)C=Cc1ccc(OC)c(OC)c1 — lower, 72 to 74 °C
- CCCCCCc1ccc2c(c1)NC(NC(C)C)=NS2(=O)=O — higher, 319 to 321 °C
- O=c1c2ccccc2nnn1CCCCl — lower, 69 °C
- O=C(O)CC1CCC2(CC1)OOC1(O2)C2CC3CC(C2)CC1C3 (configuration not stated) — lower, 146 to 148 °C
- CCCC#CC[C@H](C[C@H](N)C(=O)O)C(=O)O — lower, 200 to 201 °C
- COCOc1cc(OCOC)c(C(=O)C=Cc2cc(OC)c(OCOC)c(OC)c2)c(O)c1CC=C(C)C — lower, 91.2 to 92 °C
- O=C(Nc1ccc2nc(CN3CCCCC3)ccc2c1)c1ccc(-c2ccc(F)cc2)cc1 — lower, 202 to 204 °C
- CC1(C)C(=O)N(c2ccnc(NC(=O)NCc3ccccn3)c2)c2ccccc21 — lower, 191 to 192 °C
- Cc1ccc2c(c1)C(C(=O)Nc1c(C(C)C)cc(SC#N)cc1C(C)C)c1ccccc1CO2 (configuration not stated) — lower, 146 °C
- CCOC(=O)c1ccccc1-n1c(=O)[nH]c2ccccc2c1=O — lower, 196 to 197 °C
- Cc1nnnn1C(C=O)=C(c1ccc(F)cc1)c1ccc(F)cc1 — lower, 151 to 152 °C
- O=c1cnc2c(NC(CO)CO)nc(SCc3cccc(Cl)c3F)nc2[nH]1 — lower, 218 to 220 °C
- COc1cc2c(cc1OC)C(Cc1cc(I)c(NC(C)=O)c(I)c1)N(C(=O)C(F)(F)F)CC2 (configuration not stated) — lower, 218 to 219 °C
- Cc1nc(-c2ccccc2)nc(NCC(=O)N(C)c2ccccc2)c1Br — lower, 160 to 162 °C
- O=C(O)C1CSC(c2cccc(OCCO[N+](=O)[O-])c2)N1 (configuration not stated) — lower, 117 to 119 °C
- COC(=O)c1c([N+](=O)[O-])c(OC)c2c(=O)[nH]c(C)nc2c1OC — lower, 225 °C
- CCOC(=O)C1(C(=O)OCC)Oc2ccc(CN/C=C3\C(=O)NC(=O)c4ccc(Br)cc43)cc2O1 — lower, 222 to 223 °C
- CCOC(=O)CCCCC1CC(n2c3ccccc3c3ccccc32)c2ccccc2N1C(=O)c1ccc(OC)c(OC)c1 (configuration not stated) — lower, 195 to 196 °C
- O=C(CCO)N[C@H]1CC[C@H](CCN2CCC(c3cccc4c3CCO4)CC2)CC1 — lower, 158 °C
- COc1cc(I)ccc1-c1ccccc1 — lower, 57 °C
- CCc1cccc(NC(=O)C(C#N)=C(C)N(C)C)c1 — lower, 98 to 100 °C
- CN(Cc1cccc2c1CN(C1CCC(=O)NC1=O)C2=O)C(=O)Nc1cccc(Cl)c1 (configuration not stated) — lower, 193 to 195 °C
- O=C(O)CSC1c2cccc(O)c2C(=O)c2c(O)cccc21 — lower, 151 to 152 °C
- CCOC(=O)c1ccccc1NC(=O)CBr — lower, 65 to 66 °C
- CCOC(=S)CC/C(C)=C/Cc1c(O)c2c(c(C)c1OC)COC2=O — lower, 63 to 67 °C
- Cc1ccc(Br)c(C)c1C(O)=S — lower, 98 to 103 °C
- CCCCC(=O)Nc1ccccc1C(N)=O — lower, 119 to 120 °C
- COC(=O)C(NC(=O)c1cc2cc(Cl)ccc2[nH]1)C(C)c1ccccc1 (configuration not stated) — lower, 135 to 136 °C
- Cc1ccc(-n2c(=O)c(O)nc3cccnc32)cc1 — higher, > 300 °C
- O=C(c1ccccc1)c1ccc(OCCCCCCBr)c(Cl)c1 — lower, 58 °C
- O=Cc1c2ccc(Cl)cc2c(Cl)c2ccc(Cl)cc12 — higher, 269 to 271 °C
- COc1cc(OC)c(C(=O)CCl)cc1C — lower, 166 to 167 °C
- CC(C)C(S)C(=O)NC1(C(=O)NC(Cc2ccc(-c3ccsc3)nc2)C(=O)O)CCCC1 (configuration not stated) — lower, 215 to 217 °C
- CC1CN(c2ccc(NC=C3C(=O)NC(=O)c4ccc(Br)cc43)cc2)CC(C)N1 (configuration not stated) — lower, 229 to 230 °C
- CCn1c(=O)c2cnn3c2n(c1=O)CC=C3c1cccc(C(F)(F)F)c1 — lower, 161 to 163 °C
- CCCNC(=S)NC1=Nc2ccc(OC(F)(F)F)cc2SC1 — lower, 180 to 182 °C
- OCc1cc2c(cn1)[nH]c1ccccc12 — lower, 228 to 230 °C
- C=C1c2c(C)c(OCc3ccccc3)c(C)c(C)c2OC1(C)C — lower, 55 to 57 °C
- C[N+](C)([O-])c1ccc(/C=C/c2c(F)cccc2Cl)cc1 — lower, 82 to 84 °C
- CCOC(=O)C(=CNc1csnn1)C(=O)c1cc(F)c(Cl)nc1Cl — lower, 110 to 114 °C
- CC(C)(C)OC(=O)C(=[N+]=[N-])C(=O)CO — lower, 35 °C
- N#Cc1ccc(-c2cnc(Cl)o2)cc1 — lower, 144 °C
- NS(=O)(=O)c1cccc(-c2noc(-c3cnn4c(C5CC5)cc(-c5ccc(Cl)cc5)nc34)n2)c1 — higher, 285 °C
- COc1c(C)c2c(c(O)c1CC1=C(C)C(CC(=O)O)CC1)C(=O)OC2 (configuration not stated) — lower, 153 to 159 °C
- O=C(Nc1c[nH]nc1C(=O)NCCc1cccnc1)c1ccccn1 — higher, 267 to 268 °C
- CCCOCCOc1ccc(COc2ccc3c(c2)C=C(C(=O)O)CCS3(=O)=O)cc1 — lower, 244 to 250 °C
- CC#CC(=O)c1c(-c2ccc(F)cc2)nn2c(Cl)cccc12 — lower, 182 to 183 °C
- CSc1cnc(NC(=O)C(Cc2ccc(F)cc2)c2ccc(S(C)(=O)=O)cc2)cn1 (configuration not stated) — lower, 188 °C
- CC(=O)Nc1cccc(S(=O)(=O)N2[C@H](C)CN(CC(=O)Nc3ccccc3C)C[C@@H]2C)c1 — lower, 236 to 238 °C
- CCCCCCN1CCN(Cc2ccc([N+](=O)[O-])cc2)C(=O)C1=O — lower, 115 to 117 °C
- CCOC(=O)C(=O)CCc1ccc(OC)c(OC)c1 — lower, 85 to 87 °C
- Cn1c(C(F)(F)F)cc(=O)n(-c2cc(OCc3cccs3)c(Cl)cc2F)c1=O — lower, 156 to 158 °C
- COc1ccccc1COc1ccc2c(c1)C=C(C(=O)O)CCS2(=O)=O — lower, 168 to 171 °C
- CC1(c2ccc(F)cc2)CN(Cc2ccc(COc3cccc4c3CN(C3CCC(=O)NC3=O)C4=O)cc2)CCO1 (configuration not stated) — lower, 118 to 120 °C
- O=c1c(-c2n[nH]c3ccccc23)coc2ccccc12 — lower, 159 to 160 °C
- CN1CCN(c2cc3c(cc2Cl)c(=O)c(C(=O)O)cn3C)CC1 — higher, 286 °C
- Fc1ccc(F)c(CN2CCNc3ncc(-c4ccnc(N5CCOCC5)c4)cc32)c1Cl — lower, 157 °C
- CC(C)c1ccc(C(=O)O)c(C2=NC(=O)C(C)(C(C)C)N2)n1 (configuration not stated) — lower, 131 to 134 °C
- CCCN1CC(c2ccc(F)cc2)=C(c2ccc(S(N)(=O)=O)cc2)C1=O — lower, 180 to 181 °C
- C=C(C)C1CCC2(C(=O)O)CCC3(C)C(CCC4C5(C)CCC(O)C(C)(CO)C5CCC43C)C12 (configuration not stated) — lower, 258 to 259 °C
- CSc1ccc([N+](=O)[O-])nc1 — lower, 165 to 167 °C
- CCOc1cccc(C2C(C(=O)OC)=C(C)NC(C)=C2C(=O)OC)c1OCC(=O)NCCO[N+](=O)[O-] — lower, 159 to 160 °C
- CC(C)C[C@H](NC1CCOCC1)C(=O)O — higher, > 300 °C
- CCc1nc2cc(Cn3ccnc3)ccc2n1C — lower, 127 °C
- CCOC(=O)c1cn2c3c(cc(I)cc3c1=O)OC(c1ccccn1)C2 (configuration not stated) — lower, 224 to 225 °C
